Measured values reported in article PMC12073449, “Development of a Mechanism of Action-Reflective Cell-Based Reporter Gene Assay for Measuring Bioactivities of Therapeutic Glucagon-like Peptide-2 Analogues” (Molecules, 2025).
Ends that are not written are not given here.

System: HEK293-GLP-2R-Luc cells

Substance: HGEGTFSSELATILDALAARDFINWLIATKITDKKKKKK-NH2 [glepaglutide]
- log2 (TD/Ctrl) CACNB1 (Qvalue 4.04 × 10^−5): 1.075
- log2 (TD/Ctrl) CHAC1 (Qvalue 4.05 × 10^−4): 1.141
- log2 (TD/Ctrl) PDK4 (Qvalue 4.05 × 10^−7): 1.463
- log2 (TD/Ctrl) GUCY1A1 (Qvalue 4.19 × 10^−5): −1.107
- log2 (TD/Ctrl) SNAP25 (Qvalue 4.24 × 10^−5): 1.698
- log2 (TD/Ctrl) CALCB (Qvalue 4.28 × 10^−58): 3.658
- log2 (TD/Ctrl) PDE8B (Qvalue 4.35 × 10^−6): 1.08
- log2 (TD/Ctrl) FAM86B2 (Qvalue 4.40 × 10^−6): 1.144
- log2 (TD/Ctrl) CD55 (Qvalue 4.43 × 10^−29): 1.554
- log2 (TD/Ctrl) PDE10A (Qvalue 4.45 × 10^−11): 1.052
- log2 (TD/Ctrl) IGFBP5 (Qvalue 4.48 × 10^−29): −1.803
- log2 (TD/Ctrl) PPP1R15A (Qvalue 4.52 × 10^−19): 1.729
- log2 (TD/Ctrl) FAM131B (Qvalue 4.57 × 10^−4): 2.284
- log2 (TD/Ctrl) DCLK1 (Qvalue 4.77 × 10^−6): 1.118
- log2 (TD/Ctrl) ARC (Qvalue 4.77 × 10^−21): 2.548
- log2 (TD/Ctrl) TRMT11 (Qvalue 4.83 × 10^−7): 1.007
- log2 (TD/Ctrl) BRSK1 (Qvalue 4.84 × 10^−4): 1.033
- log2 (TD/Ctrl) CXCL8 (Qvalue 4.89 × 10^−10): 2.264
- log2 (TD/Ctrl) MMP10 (Qvalue 4.91 × 10^−4): 2.63
- log2 (TD/Ctrl) NTS (Qvalue 4.98 × 10^−8): 3.901
- log2 (TD/Ctrl) INKA2 (Qvalue 5.19 × 10^−4): −1.14
- log2 (TD/Ctrl) RSRC2 (Qvalue 5.28 × 10^−10): 1.09
- log2 (TD/Ctrl) PCDH9 (Qvalue 5.30 × 10^−8): −1.158
- log2 (TD/Ctrl) NCOA5 (Qvalue 5.31 × 10^−8): −1.2433
- log2 (TD/Ctrl) PROCR (Qvalue 5.32 × 10^−8): 1.201
- log2 (TD/Ctrl) AVPI1 (Qvalue 5.33 × 10^−8): 1.192
- log2 (TD/Ctrl) IL12A (Qvalue 5.36 × 10^−4): 1.606
- log2 (TD/Ctrl) CCN2 (Qvalue 5.36 × 10^−15): 2.558
- log2 (TD/Ctrl) PCSK1 (Qvalue 5.37 × 10^−34): 5.002
- log2 (TD/Ctrl) HSPB8 (Qvalue 5.44 × 10^−4): 1.961
- log2 (TD/Ctrl) CHGB (Qvalue 5.45 × 10^−20): 3.305
- log2 (TD/Ctrl) LY6K (Qvalue 5.54 × 10^−6): 2.444
- log2 (TD/Ctrl) TNFRSF10D (Qvalue 5.55 × 10^−11): −1.432
- log2 (TD/Ctrl) RNF122 (Qvalue 5.63 × 10^−24): 1.985
- log2 (TD/Ctrl) PAPPA (Qvalue 5.75 × 10^−4): 1.578
- log2 (TD/Ctrl) CTH (Qvalue 5.77 × 10^−13): 1.317
- log2 (TD/Ctrl) ETV5 (Qvalue 5.77 × 10^−17): 1.932
- log2 (TD/Ctrl) FOSL1 (Qvalue 5.84 × 10^−23): 3.193
- log2 (TD/Ctrl) UBE2QL1 (Qvalue 5.89 × 10^−10): 1.897
- log2 (TD/Ctrl) PCK1 (Qvalue 5.99 × 10^−8): 4.954
- log2 (TD/Ctrl) SYAP1 (Qvalue 6.03 × 10^−37): 1.501
- log2 (TD/Ctrl) ADAMTS1 (Qvalue 6.10 × 10^−16): 1.32
- log2 (TD/Ctrl) TSPAN18 (Qvalue 6.12 × 10^−5): 1.221
- log2 (TD/Ctrl) ZNF697 (Qvalue 6.15 × 10^−17): 1.651
- log2 (TD/Ctrl) NME1-NME2 (Qvalue 6.18 × 10^−4): 1.069
- log2 (TD/Ctrl) TAF1D (Qvalue 6.18 × 10^−6): 1.001
- log2 (TD/Ctrl) GAB2 (Qvalue 6.27 × 10^−10): 1.866
- log2 (TD/Ctrl) ZNF718 (Qvalue 6.33 × 10^−4): −1.3027
- log2 (TD/Ctrl) OMA1 (Qvalue 6.34 × 10^−6): −1.165
- log2 (TD/Ctrl) EPHA7 (Qvalue 6.41 × 10^−18): −1.443
- log2 (TD/Ctrl) NR4A3 (Qvalue 6.44 × 10^−8): 1.795
- log2 (TD/Ctrl) AREG (Qvalue 6.48 × 10^−5): 3.509
- log2 (TD/Ctrl) ZCCHC12 (Qvalue 6.60 × 10^−42): 2.11
- log2 (TD/Ctrl) CHMP1B (Qvalue 6.69 × 10^−14): 1.048
- log2 (TD/Ctrl) KBTBD7 (Qvalue 6.73 × 10^−6): −1.122
- log2 (TD/Ctrl) FAM200C (Qvalue 6.74 × 10^−4): −1.19
- log2 (TD/Ctrl) EGR1 (Qvalue 6.76 × 10^−10): 2.978
- log2 (TD/Ctrl) PLAUR (Qvalue 6.86 × 10^−10): 1.559
- log2 (TD/Ctrl) MAP2K6 (Qvalue 6.95 × 10^−9): −1.348
- log2 (TD/Ctrl) NR4A2 (Qvalue 7.07 × 10^−23): 2.428
- log2 (TD/Ctrl) P2RY11 (Qvalue 7.12 × 10^−9): −9.7959
- log2 (TD/Ctrl) CARMIL2 (Qvalue 7.13 × 10^−10): 1.753
- log2 (TD/Ctrl) COL7A1 (Qvalue 7.17 × 10^−4): −1.612
- log2 (TD/Ctrl) KRT17 (Qvalue 7.46 × 10^−4): 3.685
- log2 (TD/Ctrl) PTRH1 (Qvalue 7.65 × 10^−4): 1.322
- log2 (TD/Ctrl) CBARP (Qvalue 7.76 × 10^−5): 1.225
- log2 (TD/Ctrl) ZBTB12 (Qvalue 7.78 × 10^−9): −1.6
- log2 (TD/Ctrl) CGA (Qvalue 7.84 × 10^−76): 7.042
- log2 (TD/Ctrl) SERPINE2 (Qvalue 7.93 × 10^−10): 1.136
- log2 (TD/Ctrl) GABARAPL1 (Qvalue 8.03 × 10^−15): 1.405
- log2 (TD/Ctrl) COL1A1 (Qvalue 8.07 × 10^−20): 1.91
- log2 (TD/Ctrl) NDRG4 (Qvalue 8.22 × 10^−4): 1.306
- log2 (TD/Ctrl) QRICH2 (Qvalue 8.25 × 10^−6): −1.253
- log2 (TD/Ctrl) CD24 (Qvalue 8.27 × 10^−27): 2.289
- log2 (TD/Ctrl) ZNF331 (Qvalue 8.43 × 10^−12): 1.041
- log2 (TD/Ctrl) FZD4 (Qvalue 8.54 × 10^−5): −1.071
- log2 (TD/Ctrl) RGS6 (Qvalue 8.61 × 10^−5): 4.489
- log2 (TD/Ctrl) NR4A1 (Qvalue 8.67 × 10^−7): 4.426
- log2 (TD/Ctrl) BMPER (Qvalue 8.87 × 10^−4): 2.13
- log2 (TD/Ctrl) IER2 (Qvalue 9.14 × 10^−13): 1.167
- log2 (TD/Ctrl) INHBA (Qvalue 9.22 × 10^−49): 4.678
- log2 (TD/Ctrl) SERPINB9 (Qvalue 9.32 × 10^−11): 1.4
- log2 (TD/Ctrl) GADD45B (Qvalue 9.33 × 10^−42): 1.995
- log2 (TD/Ctrl) FAM111B (Qvalue 9.51 × 10^−4): −1.222
- log2 (TD/Ctrl) FHL2 (Qvalue 9.62 × 10^−6): 1.082
- log2 (TD/Ctrl) NFKB2 (Qvalue 9.77 × 10^−25): 1.551
- log2 (TD/Ctrl) EDA2R (Qvalue 9.85 × 10^−6): −1.374
- log2 (TD/Ctrl) EGR3 (Qvalue 9.86 × 10^−8): 2.228
- log2 (TD/Ctrl) LAMB3 (Qvalue 9.88 × 10^−5): 1.323
- log2 (TD/Ctrl) SAP30L (Qvalue 9.88 × 10^−7): −1.0123
- log2 (TD/Ctrl) SCARA5 (Qvalue […] 10^−12): 3.284
- log2 (TD/Ctrl) GCNA (Qvalue […] 10^−17): 1.602
- log2 (TD/Ctrl) TAC1 (Qvalue […] 10^−76): 4.689
